According to the supplement of paper PMC10627819:

Legend:
Experiment in all cases: fitness (endpoint OD595 vs no drug) (fraction); higher = more growth
S. aureus DSM 20231 = test system: S. aureus DSM 20231
In short: (§1)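 Fitness expresses the optical density reached at the stationary-phase transition as a fraction of the robust mean of no-drug control wells. It is capped at 1. Measurements were OD595 every 30 min for 14 h at 37 °C after inoculation of 384-well plates at OD595 0.01 (30 µl, or 55 µl for S. pneumoniae), minus the first reading.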

B. subtilis 168 = test system: B. subtilis 168
In short: as §1

S. pneumoniae D39V = test system: S. pneumoniae D39V
In short: as §1
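Also: OD595 on entry to stationary phase over no-drug wells; at most 1.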

CN(C)[C@@H]1C(O)=C(C(N)=O)C(=O)[C@@]2(O)C(O)=C3C(=O)c4c(O)ccc(Cl)c4[C@@](C)(O)[C@H]3C[C@@H]12 [Chlortetracycline] + COc1ccc(C[C@H](N)C(=O)N[C@H]2[C@@H](O)[C@H](n3cnc4c(N(C)C)ncnc43)O[C@@H]2CO)cc1 [Puromycin]
fitness, one replicate
Conditions	first compound 0.006 µg/mL	first compound 0.012 µg/mL	first compound 0.024 µg/mL	first compound 0.048 µg/mL
S. aureus DSM 20231, partner 0.39 µg/mL	0.853	–	–	–
S. aureus DSM 20231, partner 0.78 µg/mL	0.847	–	–	–
S. aureus DSM 20231, partner 1.56 µg/mL	0.731	–	–	–
S. aureus DSM 20231, partner 3.12 µg/mL	–	0.325	0.0559	0.0249
S. aureus DSM 20231, partner 6.24 µg/mL	–	0.0809	0.0524	0.0264
S. pneumoniae D39V, partner 1 µg/mL	–	0.822	0.875	0.647
S. pneumoniae D39V, partner 2 µg/mL	–	0.793	0.773	0.453
S. pneumoniae D39V, partner 4 µg/mL	–	0.619	0.606	0.171

fitness
Conditions	partner 0.39 µg/mL	partner 0.78 µg/mL	partner 1 µg/mL	partner 1.56 µg/mL	partner 2 µg/mL	partner 4 µg/mL
B. subtilis 168, first compound 0.0475 µg/mL	0.858	0.901	–	0.904	–	–
B. subtilis 168, first compound 0.095 µg/mL	0.741	0.728	–	0.671	–	–
B. subtilis 168, first compound 0.19 µg/mL	0.512	0.459	–	0.351	–	–
S. aureus DSM 20231, first compound 0.012 µg/mL	0.567	0.589	–	0.497	–	–
S. aureus DSM 20231, first compound 0.024 µg/mL	0.2	0.217	–	0.137	–	–
S. aureus DSM 20231, first compound 0.048 µg/mL	0.053	0.171	–	0.0612	–	–
S. pneumoniae D39V, first compound 0.375 µg/mL	–	–	0.0657	–	0.0757	0.0703
S. pneumoniae D39V, first compound 0.75 µg/mL	–	–	0.0562	–	0.0783	0.0776
S. pneumoniae D39V, first compound 1.5 µg/mL	–	–	0.0348	–	0.0557	0.0492

CN(C)[C@@H]1C(O)=C(C(N)=O)C(=O)[C@@]2(O)C(O)=C3C(=O)c4c(O)ccc(Cl)c4[C@@](C)(O)[C@H]3C[C@@H]12 [Chlortetracycline] + CC1=C\[C@@H](O)CC(=O)Cc2nc(co2)C(=O)N2CCC=C2C(=O)O[C@H](C(C)C)[C@H](C)/C=C/C(=O)NC\C=C\1 [Virginiamycin M1]
fitness, one replicate
Conditions	first compound 0.006 µg/mL	first compound 0.012 µg/mL	first compound 0.024 µg/mL	first compound 0.048 µg/mL
S. aureus DSM 20231, partner 0.0625 µg/mL	0.776	–	–	–
S. aureus DSM 20231, partner 0.125 µg/mL	0.785	–	–	–
S. aureus DSM 20231, partner 0.25 µg/mL	0.809	–	–	–
S. aureus DSM 20231, partner 0.5 µg/mL	–	0.495	0.146	0.0554
S. aureus DSM 20231, partner 1 µg/mL	–	0.462	0.284	0.263
S. pneumoniae D39V, partner 0.15 µg/mL	–	0.955	0.895	0.825
S. pneumoniae D39V, partner 0.3 µg/mL	–	0.86	0.859	0.782
S. pneumoniae D39V, partner 0.5 µg/mL	–	0.889	0.89	0.848
S. pneumoniae D39V, partner 1 µg/mL	–	0.88	0.845	0.761

Conditions	fitness
B. subtilis 168, first compound 0.0475 µg/mL, partner 0.0625 µg/mL	0.874
B. subtilis 168, first compound 0.0475 µg/mL, partner 0.125 µg/mL	0.898
B. subtilis 168, first compound 0.0475 µg/mL, partner 0.25 µg/mL	0.87
B. subtilis 168, first compound 0.095 µg/mL, partner 0.0625 µg/mL	0.823
B. subtilis 168, first compound 0.095 µg/mL, partner 0.125 µg/mL	0.725
B. subtilis 168, first compound 0.095 µg/mL, partner 0.25 µg/mL	0.759
B. subtilis 168, first compound 0.19 µg/mL, partner 0.0625 µg/mL	0.55
B. subtilis 168, first compound 0.19 µg/mL, partner 0.125 µg/mL	0.547
B. subtilis 168, first compound 0.19 µg/mL, partner 0.25 µg/mL	0.568
S. aureus DSM 20231, first compound 0.012 µg/mL, partner 0.0625 µg/mL	0.565
S. aureus DSM 20231, first compound 0.012 µg/mL, partner 0.125 µg/mL	0.533
S. aureus DSM 20231, first compound 0.012 µg/mL, partner 0.25 µg/mL	0.567
S. aureus DSM 20231, first compound 0.024 µg/mL, partner 0.0625 µg/mL	0.191
S. aureus DSM 20231, first compound 0.024 µg/mL, partner 0.125 µg/mL	0.183
S. aureus DSM 20231, first compound 0.024 µg/mL, partner 0.25 µg/mL	0.188
S. aureus DSM 20231, first compound 0.048 µg/mL, partner 0.0625 µg/mL	0.0421
S. aureus DSM 20231, first compound 0.048 µg/mL, partner 0.125 µg/mL	0.0556
S. aureus DSM 20231, first compound 0.048 µg/mL, partner 0.25 µg/mL	0.0619
S. pneumoniae D39V, first compound 0.012 µg/mL, partner 2 µg/mL	0.817
S. pneumoniae D39V, first compound 0.024 µg/mL, partner 2 µg/mL	0.787
S. pneumoniae D39V, first compound 0.048 µg/mL, partner 2 µg/mL	0.74
S. pneumoniae D39V, first compound 0.375 µg/mL, partner 0.5 µg/mL	0.025
S. pneumoniae D39V, first compound 0.375 µg/mL, partner 1 µg/mL	0.0379
S. pneumoniae D39V, first compound 0.375 µg/mL, partner 2 µg/mL	0.0569
S. pneumoniae D39V, first compound 0.75 µg/mL, partner 0.5 µg/mL	0.0422
S. pneumoniae D39V, first compound 0.75 µg/mL, partner 1 µg/mL	0.0446
S. pneumoniae D39V, first compound 0.75 µg/mL, partner 2 µg/mL	0.0829
S. pneumoniae D39V, first compound 1.5 µg/mL, partner 0.5 µg/mL	0.0504
S. pneumoniae D39V, first compound 1.5 µg/mL, partner 1 µg/mL	0.0561
S. pneumoniae D39V, first compound 1.5 µg/mL, partner 2 µg/mL	0.0443
